13 compounds from US8722903B2, “Indazole derivatives for the treatment of HSP9O-induced diseases” (Merck Patent GmbH, priority 2006, dated 2014) can be followed below.

The test has as its target T1, Recombinant human HSP90α (Homo sapiens, UniProt P07900).
T1 construct: host or cells: E. coli
Description: Radioligand filter binding test: competitive inhibition of [3H]17AAG binding to HSP90. To be noted: [3H]17AAG 0.08 μM, HSP90 1.5 μg/assay, 22° C., 30 min. How it is done: In the specific case, a radioligand filter binding test is used. The radioligand used here is tritium-labelled 17-allylaminogeldanamycin, [3H]17AAG, This filter binding test allows a targeted search for inhibitors which interfere with the ATP binding site.
Recombinant human HSP90α (E. coli expressed, 95% purity);
HEPES filter buffer (50 mM HEPES, pH 7.0, 5 mM MgCl2, BSA 0.01%) Multiscreen FB (1 μm) filter plate (Millipore, MAFBNOB 50).
The 96-well microtitre filter plates are firstly irrigated and coated with 0.1% of polyethylenimine.
The test is carried out under the following conditions:
Reaction temperature 22° C.
Reaction time: 30 min., shaking at 800 rpm
50 mM HEPES HCl, pH 7.0, 5 mM MgCl2, 0.01% (w/v) of BSA
At the end of the reaction, the supernatant in the filter plate is removed by suction with the aid of a vacuum manifold (Multiscreen Separation System, Millipore), and the filter is washed twice.
The filter plates are then measured in a beta counter (Microbeta, Wallac) with scintillator (Microscint 20, Packard).
“% of control” is determined from the “counts per minutes” values, and the IC-50 value of a compound is calculated therefrom.
The IC50 is the concentration needed to halve the response being measured. For the compound `CCCCN(C)C(=O)c1cc2c(Cc3ccccc3Cl)n[nH]c2cc1O` [Compound A33, 5-(N-Butyl-N-methylaminocarbonyl)-3-(2-chlorobenzyl)-6-hydroxy-1H-indazole], the IC50 lay in the range of 1000 to 10000 nM.

On to `CCCc1n[nH]c2cc(O)c(C(=O)N(C)c3ccc(OC)c(OC)c3)cc12` [Compound A174, 5-[N-(3,4-Dimethoxyphenyl)-N-methylaminocarbonyl]-3-propyl-6-hydroxy-1H-indazole], for which the half-maximal inhibitory concentration (IC50) was in the range of 10 to 1000 nM.

`CN(Cc1cccc2c1OCO2)C(=O)c1cc2c(Cc3ccccc3)n[nH]c2cc1O` [Compound A30, 5-[N-(Benzo-1,3-dioxol-4-ylmethyl)-N-methylaminocarbonyl]-3-benzyl-6-hydroxy-1H-indazole]: the concentration for half-maximal inhibition (IC50) lay in the range of 1000 to 10000 nM. For `Cc1ccc(Cc2n[nH]c3cc(O)c(C(=O)N(C)c4ccccc4)cc23)cc1` [Compound A122, 5-(N-Phenyl-N-methylaminocarbonyl)-3-(4-methylbenzyl)-6-hydroxy-1H-indazole], the IC50 lay within 10 to 1000 nM. The result for `CCCCN(C)C(=O)c1cc2c(Cc3ccccc3C)n[nH]c2cc1O` [Compound A43, 5-(N-Butyl-N-methylaminocarbonyl)-3-(2-methylbenzyl)-6-hydroxy-1H-indazole] reads 1000 to 10000 nM; that for `CCCc1n[nH]c2cc(O)c(C(=O)N(C)c3ccc(CNS(C)(=O)=O)cc3)cc12` [Compound A177, 5-[N-(4-Methylsulfonylaminomethylphenyl)-N-methylaminocarbonyl]-3-propyl-6-hydroxy-1H-indazole], 10 to 1000 nM; that for `CCCN(C)C(=O)c1cc2c(Cc3ccccc3)n[nH]c2cc1O` [Compound A4, 5-(N-propyl-N-methylaminocarbonyl)-3-benzyl-6-hydroxy-1H-indazole], 1000 to 10000 nM. The value for `CCCCN(C)C(=O)c1cc2c(Cc3cccc(C)c3)n[nH]c2cc1O` [Compound A25, 5-(N-Butyl-N-methylaminocarbonyl)-3-(3-methylbenzyl)-6-hydroxy-1H-indazole] was 10 to 1000 nM.

As to `CCCN(C)C(=O)c1cc2c(Cc3cccc(C)c3)n[nH]c2cc1O` [Compound A38, 5-(N-Propyl-N-methylaminocarbonyl)-3-(3-methylbenzyl)-6-hydroxy-1H-indazole], the IC50 is 1000 to 10000 nM. The result for `CCCN(C)C(=O)c1cc2c(CCc3ccccc3)n[nH]c2cc1O` [Compound A182, 5-(N-Propyl-N-methylaminocarbonyl)-3-phenethyl-6-hydroxy-1H-indazole] reads 1000 to 10000 nM; that for `CN(Cc1ccccc1)C(=O)c1cc2c(CCc3ccccc3)n[nH]c2cc1O` [Compound A181, 5-(N-Benzyl-N-methylaminocarbonyl)-3-phenethyl-6-hydroxy-1H-indazole], 10 to 1000 nM; that for `CN(C(=O)c1cc2c(CC3CCCC3)n[nH]c2cc1O)c1ccc2c(c1)OCO2` [Compound A260, 5-[N-(Benzo-1,3-dioxol-5-yl)-N-methylaminocarbonyl]-3-cyclopentylmethyl-6-hydroxy-1H-indazole], 10 to 1000 nM.

In the case of `CCCN(C)C(=O)c1cc2c(Cc3ccccc3Cl)n[nH]c2cc1O` [Compound A35, 5-(N-Propyl-N-methylaminocarbonyl)-3-(2-chlorobenzyl)-6-hydroxy-1H-indazole], the IC50 was in the range of 1000 to 10000 nM.
